According to ChEMBL document CHEMBL1667721, “Isolation, structure elucidation, and cytotoxic evaluation of furanonaphthoquinones from in vitro plantlets and cultures of Streptocarpus dunnii” (J Nat Prod, 2011):

Tests used:
[1] = system: MCF7; experiment: Cytotoxicity against human MCF7 cells after 6 days
[2] = system: BT-474; experiment: Cytotoxicity against human BT474 cells after 6 days
[3] = Cytotoxicity against human Hs 578T cells after 6 days
[4] = system: MIA PaCa-2; experiment: Cytotoxicity against human MIAPaCa2 cells after 6 days
[5] = system: MCF7; experiment: Cytotoxicity against human MCF7 cells after 24 hrs; type: functional, cell-based
[6] = system: BT-474; experiment: Cytotoxicity against human BT474 cells after 24 hrs; type: functional, cell-based
[7] = Cytotoxicity against human Hs 578T cells after 24 hrs; type: functional, cell-based
[8] = system: MIA PaCa-2; experiment: Cytotoxicity against human MIAPaCa2 cells after 24 hrs; type: functional, cell-based
[9] = Homo sapiens, MCF7, 6 days, read-out: IC50
[10] = Homo sapiens, BT-474, 6 days, read-out: IC50
[11] = Homo sapiens, Hs-578T, 6 days, read-out: IC50
[12] = Homo sapiens, MIA PaCa-2, 6 days, read-out: IC50

Structure (SMILES) | IC50 [1, 9] [µM] | IC50 [2, 10] [µM] | IC50 [3, 11] [µM] | IC50 [4, 12] [µM] | also measured
COc1cc2c(cc1O)C(=O)C1=C(O[C@H](C)C1(C)C)C2=O |  |  |  |  | IC50 ([1]; mcf7): Not Active; IC50 ([2]; bt-474): Not Active; IC50 ([3]; hs-578t): Not Active; IC50 ([4]; mia paca-2): Not Active
Cc1ccc2c(c1O)C(=O)c1ccccc1C2=O |  |  |  |  | IC50 [5]: Not Active; IC50 [6]: Not Active; IC50 [7]: Not Active; IC50 [8]: Not Active
C[C@H]1OC2=C(C(=O)C(=O)c3ccccc32)C1(C)C [(3R)-DUNNIONE] | 2.3 | 1 | 5 | 1.9 | 
C[C@H]1OC2=C(C(=O)c3ccccc3C2=O)C1(C)C | 5.8 | 4.5 | > 10 | 4.6 | 
C[C@H]1OC2=C(C(=O)c3ccc(O)cc3C2=O)C1(C)C | 5.7 | 4.9 | > 10 | 6.7 | 
